In PubChem BioAssay AID248 (DTP/NCI, 2004) one finds T/C data, which are given here for four compounds.

The subject of the assay is L1210 leukemia ip in BDF1 mice, survival T/C. The experiment in a line: NCI In Vivo Anticancer Drug Screen. Data for tumor model L1210 Leukemia (intraperitoneal) in B6D2F1 (BDF1) mice. The note with it: endpoint: mean survival time, higher = longer survival. Summed up:
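Antitumor effect is assessed in tumor-bearing animals. Survival in the compound arm is compared with a vehicle-dosed control arm and expressed as their quotient.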

Values joined by “and” are separate entries in the source; they are usually repeats but may differ in a detail not shown here. Equal entries are not always repeated. Toxic doses and inconclusive results are not listed.

Take `Clc1ncnc2nc[nH]c12`: the T/C is 93 % of control and 96 % of control (dose: 7.5 mg/kg/injection, schedule: Q01DX010 (ip), vehicle: saline); 103 % of control (dose: 9.37 mg/kg/injection, schedule: Q03HX008 (ip), vehicle: other); 102 % of control (dose: 9.37 mg/kg/injection, schedule: Q03HX016 (ip), vehicle: other); 112 % of control (dose: 9.37 mg/kg/injection, schedule: Q03HX024 (ip), vehicle: other); 105 % of control (dose: 12.5 mg/kg/injection, schedule: Q03HX016 (ip), vehicle: other); 104 % of control (dose: 12.5 mg/kg/injection, schedule: Q03HX024 (ip), vehicle: other). The T/C reads like this: (dose: 15.0 mg/kg/injection, schedule: Q01DX010 (ip), vehicle: saline) 93 % of control and 105 % of control; (dose: 18.75 mg/kg/injection, schedule: Q03HX008 (ip), vehicle: other) 111 % of control; (dose: 18.75 mg/kg/injection, schedule: Q03HX016 (ip), vehicle: other) 113 % of control; (dose: 18.75 mg/kg/injection, schedule: Q03HX024 (ip), vehicle: other) 110 % of control; (dose: 25.0 mg/kg/injection, schedule: Q01DX006 (iv), vehicle: other) 108 % of control; (dose: 25.0 mg/kg/injection, schedule: Q03HX016 (ip), vehicle: other) 112 % of control. The T/C (dose: 25.0 mg/kg/injection, schedule: Q03HX024 (ip), vehicle: other) was 114 % of control; the T/C (dose: 30.0 mg/kg/injection, schedule: Q01DX010 (ip), vehicle: saline) was 104 % of control and 107 % of control; the T/C (dose: 37.5 mg/kg/injection, schedule: Q03HX024 (ip), vehicle: other) is 160 % of control; the T/C (dose: 50.0 mg/kg/injection, schedule: Q01DX001 (iv), vehicle: other) is 98 % of control; the T/C (dose: 50.0 mg/kg/injection, schedule: Q01DX005 (ip), vehicle: other) is 103 % of control; the T/C (dose: 50.0 mg/kg/injection, schedule: Q01DX006 (iv), vehicle: other) was 108 % of control. In addition, the T/C was 106 % of control and 109 % of control (dose: 50.0 mg/kg/injection, schedule: Q01DX009 (ip), vehicle: other); 112 % of control (dose: 50.0 mg/kg/injection, schedule: Q01DX009 (oral), vehicle: other); 114 % of control (dose: 50.0 mg/kg/injection, schedule: Q01DX009 (sc), vehicle: other); 110 % of control (dose: 50.0 mg/kg/injection, schedule: Q01DX Z (ip), vehicle: carboxymethylcellulose (CMC)); 101 % of control and 103 % of control (dose: 60.0 mg/kg/injection, schedule: Q01DX010 (ip), vehicle: saline); 106 % of control (dose: 75.0 mg/kg/injection, schedule: Q01DX001 (sc), vehicle: other). Further, the T/C runs as follows: (dose: 75.0 mg/kg/injection, schedule: Q03HX016 (ip), vehicle: other) 163 % of control; (dose: 75.0 mg/kg/injection, schedule: Q03HX024 (ip), vehicle: other) 189 % of control; (dose: 75.0 mg/kg/injection, schedule: Q04DX003 (ip), vehicle: other) 106 % of control; (dose: 75.0 mg/kg/injection, schedule: Q08DX002 (ip), vehicle: other) 103 % of control; (dose: 100.0 mg/kg/injection, schedule: Q01DX001 (iv), vehicle: other) 101 % of control; (dose: 100.0 mg/kg/injection, schedule: Q01DX001 (oral), vehicle: other) 103 % of control. Moreover, the T/C is, setting by setting: (dose: 100.0 mg/kg/injection, schedule: Q01DX005 (ip), vehicle: other) 118 % of control; (dose: 100.0 mg/kg/injection, schedule: Q01DX006 (iv), vehicle: other) 113 % of control; (dose: 100.0 mg/kg/injection, schedule: Q01DX009 (ip), vehicle: other) 121 % of control; (dose: 100.0 mg/kg/injection, schedule: Q01DX Z (ip), vehicle: carboxymethylcellulose (CMC)) 156 % of control; (dose: 100.0 mg/kg/injection, schedule: Q03HX016 (ip), vehicle: other) 163 % of control; (dose: 100.0 mg/kg/injection, schedule: Q03HX024 (ip), vehicle: other) 150 % of control. Also, the T/C by setting is: (dose: 100.0 mg/kg/injection, schedule: Q04DX003 (ip), vehicle: other) 115 % of control; (dose: 100.0 mg/kg/injection, schedule: Q08DX002 (ip), vehicle: other) 101 % of control; (dose: 146.0 mg/kg/injection, schedule: Q01DX015 (ip), vehicle: gum acacia) 152 % of control; (dose: 150.0 mg/kg/injection, schedule: Q01DX001 (sc), vehicle: other) 113 % of control; (dose: 150.0 mg/kg/injection, schedule: Q04DX003 (ip), vehicle: other) 114 % of control; (dose: 150.0 mg/kg/injection, schedule: Q08DX002 (ip), vehicle: other) 104 % of control. Moreover, the T/C by setting is: (dose: 200.0 mg/kg/injection, schedule: Q01DX001 (iv), vehicle: other) 106 % of control; (dose: 200.0 mg/kg/injection, schedule: Q01DX001 (oral), vehicle: other) 110 % of control; (dose: 200.0 mg/kg/injection, schedule: Q01DX009 (oral), vehicle: other) 152 % of control and 160 % of control; (dose: 200.0 mg/kg/injection, schedule: Q04DX003 (ip), vehicle: other) 109 % of control; (dose: 200.0 mg/kg/injection, schedule: Q08DX002 (ip), vehicle: other) 105 % of control; (dose: 218.0 mg/kg/injection, schedule: Q01DX015 (ip), vehicle: gum acacia) 150 % of control. Besides, the T/C was 113 % of control (dose: 300.0 mg/kg/injection, schedule: Q01DX001 (sc), vehicle: other); 113 % of control (dose: 300.0 mg/kg/injection, schedule: Q04DX003 (ip), vehicle: other); 105 % of control (dose: 300.0 mg/kg/injection, schedule: Q08DX002 (ip), vehicle: other); 152 % of control (dose: 327.0 mg/kg/injection, schedule: Q01DX015 (ip), vehicle: gum acacia); 110 % of control (dose: 360.0 mg/kg/injection, schedule: Q01DX015 (ip), vehicle: gum acacia); 158 % of control (dose: 400.0 mg/kg/injection, schedule: Q01DX009 (oral), vehicle: other). The T/C is 105 % of control (dose: 400.0 mg/kg/injection, schedule: Q01DX015 (ip), vehicle: other); 115 % of control (dose: 400.0 mg/kg/injection, schedule: Q04DX003 (ip), vehicle: other); 103 % of control (dose: 400.0 mg/kg/injection, schedule: Q08DX002 (ip), vehicle: other); 90 % of control (dose: 490.0 mg/kg/injection, schedule: Q01DX015 (ip), vehicle: gum acacia); 114 % of control (dose: 800.0 mg/kg/injection, schedule: Q04DX003 (ip), vehicle: other).
As for `C[C@]12CC[C@H](OC3OC(CO)C(O)C(O)C3O)C[C@H]1CC[C@@H]1[C@@H]2CC[C@]2(C)[C@@H](C3=CCOC3=O)CC[C@]12O` (some centres undefined), the T/C was 103 % of control (dose: 0.5 mg/kg/injection, schedule: Q01DX001 (ip), vehicle: saline); 98 % of control (dose: 0.5 mg/kg/injection, schedule: Q01DX010 (ip), vehicle: saline); 105 % of control (dose: 1.0 mg/kg/injection, schedule: Q01DX001 (ip), vehicle: saline); 107 % of control (dose: 1.0 mg/kg/injection, schedule: Q01DX010 (ip), vehicle: saline); 105 % of control (dose: 2.0 mg/kg/injection, schedule: Q01DX001 (ip), vehicle: saline); 107 % of control (dose: 2.0 mg/kg/injection, schedule: Q01DX010 (ip), vehicle: saline). Besides, the T/C runs as follows: (dose: 4.0 mg/kg/injection, schedule: Q01DX001 (ip), vehicle: saline) 103 % of control; (dose: 8.0 mg/kg/injection, schedule: Q01DX001 (ip), vehicle: saline) 103 % of control; (dose: 16.0 mg/kg/injection, schedule: Q01DX001 (ip), vehicle: saline) 108 % of control.
For `CCCCCCC(=O)Nc1cccc(OC(=O)NC)c1`, the T/C is 98 % of control (dose: 100.0 mg/kg/injection, schedule: Q04DX003 (ip), vehicle: saline with Tween-80); 96 % of control (dose: 200.0 mg/kg/injection, schedule: Q04DX003 (ip), vehicle: saline with Tween-80); 88 % of control (dose: 400.0 mg/kg/injection, schedule: Q04DX003 (ip), vehicle: saline with Tween-80).
In the case of `COc1cc(N2C(N)=NC(N)=NC2(C)C)cc(OC)c1OC`, the T/C by setting is: (dose: 6.25 mg/kg/injection, schedule: Q01DX009 (ip), vehicle: saline) 98 % of control; (dose: 12.5 mg/kg/injection, schedule: Q01DX009 (ip), vehicle: saline) 105 % of control; (dose: 25.0 mg/kg/injection, schedule: Q01DX009 (ip), vehicle: saline) 107 % of control.
